Values of other authors, collected in patent US5498598A, “Composition for nasal administration of desmopressin” (Ferring AB, priority 1995, dated 1996).

Conditions: in vivo

NC(=O)CC[C@@H]1NC(=O)[C@H](Cc2ccccc2)NC(=O)[C@H](Cc2ccc(O)cc2)NC(=O)CCSSC[C@@H](C(=O)N2CCC[C@H]2C(=O)N[C@H](CCCN=C(N)N)C(=O)NCC(N)=O)NC(=O)[C@H](CC(N)=O)NC1=O [desmopressin, 1-(3-mercaptopropionic acid)-8-D-arginine-vasopressin]
absorption of a given amount in larger volume versus the same amount in smaller volume: absorbed substantially less effectively
